Source: patent US5710153A, “Tetrazole compound” (Ono Phramaceutical Co., Ltd., priority 1995, dated 1998)

Target: T1, human ICE (Homo sapiens, UniProt P29466)
T1 sequence (P29466 120-297 limits assumed): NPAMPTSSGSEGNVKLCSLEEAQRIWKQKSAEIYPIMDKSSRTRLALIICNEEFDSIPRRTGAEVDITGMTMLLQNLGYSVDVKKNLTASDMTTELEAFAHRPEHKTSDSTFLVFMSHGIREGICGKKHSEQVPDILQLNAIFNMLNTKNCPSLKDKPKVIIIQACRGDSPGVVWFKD
T1 sequence (P29466 317-404 limits assumed): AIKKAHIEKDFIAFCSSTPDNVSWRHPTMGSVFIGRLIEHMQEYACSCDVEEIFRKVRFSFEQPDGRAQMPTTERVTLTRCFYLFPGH
Experiment: Assay for IL-1β converting enzyme
Assay type: biochemical
Conditions: human ICE solution, substrate Ac-Tyr-Val-Ala-Asp-MCA, 37° C., fluorescence
Description: (1) Assay for IL-1β converting enzyme
The reaction mixture contains, for example, 20 mM of HEPES-NaOH pH7.4, 10 mM of KOH, 1.5 mM of MgCl2, 0.1 mM of EDTA and 10% glycerol. Various concentrations of test compounds (50 μl), human ICE solution (50 μl) and various concentrations of substrate (Ac-Tyr-VaI-Ala-Asp-MCA) were mixed and incubated at 37° C. Fluorescence intensity was measured at […].
In the aboved example method,
HEPES is 4-(2-Hydroxyethyl)-1-piperazineethane-sulfonic acid,
EDTA is Ethylenediamine tetraacetate, and
Ac-Tyr-Val-Ala-Asp-MCA is Acetyl-L-tyrosyl-L-valyl-L-alanyl-L-asparaginic acid 4-methyl-coumarinyl-7-amide.

IC50: 30 nM
Structure (SMILES): CC(C)[C@H](NC(=O)CCc1ccccc1)C(=O)N[C@@H](C)C(=O)NC(CC(=O)O)C(=O)Cn1nnc(-c2c(Cl)cccc2Cl)n1 (stereo partly drawn) [Example 2(1), N-((N-(3-phenylpropionyl)-L-valyl)-L-alanyl)-3-amino-4-oxo-5-(5-(2,6-dichlorophenyl)tetrazol-2-yl)pentanoic acid]
